Source: patent US12016874B2, “Methods and compositions for treating carbapenem-resistant klebsiella pneumoniae infections” (City University of Hong Kong, priority 2022, dated 2024)
Values after ≈ are worked out from the molar mass of the structure shown. Like-named read-outs stand apart in the source and are kept apart here.

Experiments:
14WZ-43 = experiment: MIC determination according to CLSI guidelines; format: cell-based, K. pneumoniae; details: Klebsiella pneumoniae, drug alone
Experimental: (§1) Bacterial strains grown on MH agar plates were resuspended in sterilized 0.85% sodium chloride solution. […] All tested culture media were finally cultured at 37° C. for 16 hours. E. coli ATCC25922 and K. pneumoniae MGH78578 in Table 1 were used as reference control bacteria.
(§2) See Table 2 and Table 2-1 below for details.

14WZ-44 = experiment: MIC determination according to CLSI guidelines; format: cell-based, K. pneumoniae; details: Klebsiella pneumoniae; 14WZ-44 (CRKP); drug alone
Experimental: as §1, §2

14WZ-45 = experiment: MIC determination according to CLSI guidelines; format: cell-based, K. pneumoniae; details: Klebsiella pneumoniae, drug alone
Experimental: as §1, §2

14WZ-51 = experiment: MIC determination according to CLSI guidelines; format: cell-based, K. pneumoniae; details: Klebsiella pneumoniae, drug alone
Experimental: as §1, §2

14WZ-52 = experiment: MIC determination according to CLSI guidelines; format: cell-based, K. pneumoniae; details: Klebsiella pneumoniae, drug alone
Experimental: as §1, §2

15WZ-68 = experiment: MIC determination according to CLSI guidelines; format: cell-based, K. pneumoniae; details: Klebsiella pneumoniae, drug alone
Experimental: as §1, §2

15WZ-88 = experiment: MIC determination according to CLSI guidelines; format: cell-based, K. pneumoniae; details: Klebsiella pneumoniae, drug alone
Experimental: as §1, §2

16WZ-134 = experiment: MIC determination according to CLSI guidelines; format: cell-based, K. pneumoniae; details: Klebsiella pneumoniae, drug alone
Experimental: as §1, §2

16ZR-10 = experiment: MIC determination according to CLSI guidelines; format: cell-based, K. pneumoniae; details: Klebsiella pneumoniae, drug alone
Experimental: as §1, §2

16ZR-33 = experiment: MIC determination according to CLSI guidelines; format: cell-based, K. pneumoniae; details: Klebsiella pneumoniae, drug alone
Experimental: as §1, §2

16ZR-58 = experiment: MIC determination according to CLSI guidelines; format: cell-based, K. pneumoniae; details: Klebsiella pneumoniae, drug alone
Experimental: as §1, §2

16ZR-93 = experiment: MIC determination according to CLSI guidelines; format: cell-based, K. pneumoniae; details: Klebsiella pneumoniae, drug alone
Experimental: as §1, §2

17ZR-31 = experiment: MIC determination according to CLSI guidelines; format: cell-based, K. pneumoniae; details: Klebsiella pneumoniae, drug alone
Experimental: as §1, §2

17ZR-61 = experiment: MIC determination according to CLSI guidelines; format: cell-based, K. pneumoniae; details: Klebsiella pneumoniae, drug alone
Experimental: as §1, §2

17ZR-63 = experiment: MIC determination according to CLSI guidelines; format: cell-based, K. pneumoniae; details: Klebsiella pneumoniae, drug alone
Experimental: as §1, §2

17ZR-75 = experiment: MIC determination according to CLSI guidelines; format: cell-based, K. pneumoniae; details: Klebsiella pneumoniae, drug alone
Experimental: as §1, §2

CR-HvKP 1 [1] = experiment: MIC determination according to CLSI guidelines; format: cell-based, K. pneumoniae; details: Klebsiella pneumoniae, drug alone
Experimental: as §1, §2

CR-HvKP 2 = experiment: MIC determination according to CLSI guidelines; format: cell-based, K. pneumoniae; details: Klebsiella pneumoniae, drug alone
Experimental: as §1, §2

CR-HvKP 3 = experiment: MIC determination according to CLSI guidelines; format: cell-based, K. pneumoniae; details: Klebsiella pneumoniae, drug alone
Experimental: as §1, §2

CR-HvKP 5 = experiment: MIC determination according to CLSI guidelines; format: cell-based, K. pneumoniae; details: Klebsiella pneumoniae, drug alone
Experimental: as §1, §2

E. coli ATCC25922 = experiment: MIC determination according to CLSI guidelines; format: cell-based; details: Escherichia coli, drug alone
Experimental: as §1, §2

K. pneumoniae MGH78578 = experiment: MIC determination according to CLSI guidelines; format: cell-based; details: Klebsiella pneumoniae, drug alone
Experimental: as §1, §2

CR-HvKP 1 [2] = details: for Viability (%): CR-HvKP 1 infected ICR mice; for mortality rate of mice: oral gavage every 12 hours
Experimental: The ICR mice were injected with 3×10^7 CFU of CR-HvKP 1 intraperitoneally to create sepsis infection models.

CR-HvKP 1 [3] = experiment: microbe, parasite or virus in culture; format: cell-based, K. pneumoniae; details: Klebsiella pneumoniae, read-out: MIC after serial passage with incremental drug concentrations
Experimental: The principle of this experiment is that sub-inhibitory concentrations of antibiotics will induce drug-resistant mutations of bacteria.
Materials and methods: CR-HvKP 1 was selected as the representative strain. […] After 24 hours of culture, the culture possibly containing drug-resistant mutant bacteria was diluted 1:100 into fresh LB medium containing 2-fold concentration of drugs. This continuous transfer was repeated for six generations, i.e. the experiment was conducted for six days (the concentration on the second day was twice that on the first day, with daily increment).

HepG2 cells = experiment: MTT experiment; details: MTT assay
E. coli = experiment: Screening of FDA-approved drug library; format: cell-based; details: drug library screen
P. aeruginosa = experiment: Screening of FDA-approved drug library; format: cell-based; details: drug library screen
K. pneumoniae = experiment: Screening of FDA-approved drug library; format: cell-based; details: drug library screen
[4] = target: T1, K. pneumoniae RNA polymerase (Klebsiella pneumoniae subsp. pneumoniae, UniProt A6TGP0+A6TGP1); experiment: ITC assay; format: binding; details: 25° C.
T1 construct: made in house; host or cells: E. coli BL21(DE3)
T1 sequence (A6TGP1 whole entry): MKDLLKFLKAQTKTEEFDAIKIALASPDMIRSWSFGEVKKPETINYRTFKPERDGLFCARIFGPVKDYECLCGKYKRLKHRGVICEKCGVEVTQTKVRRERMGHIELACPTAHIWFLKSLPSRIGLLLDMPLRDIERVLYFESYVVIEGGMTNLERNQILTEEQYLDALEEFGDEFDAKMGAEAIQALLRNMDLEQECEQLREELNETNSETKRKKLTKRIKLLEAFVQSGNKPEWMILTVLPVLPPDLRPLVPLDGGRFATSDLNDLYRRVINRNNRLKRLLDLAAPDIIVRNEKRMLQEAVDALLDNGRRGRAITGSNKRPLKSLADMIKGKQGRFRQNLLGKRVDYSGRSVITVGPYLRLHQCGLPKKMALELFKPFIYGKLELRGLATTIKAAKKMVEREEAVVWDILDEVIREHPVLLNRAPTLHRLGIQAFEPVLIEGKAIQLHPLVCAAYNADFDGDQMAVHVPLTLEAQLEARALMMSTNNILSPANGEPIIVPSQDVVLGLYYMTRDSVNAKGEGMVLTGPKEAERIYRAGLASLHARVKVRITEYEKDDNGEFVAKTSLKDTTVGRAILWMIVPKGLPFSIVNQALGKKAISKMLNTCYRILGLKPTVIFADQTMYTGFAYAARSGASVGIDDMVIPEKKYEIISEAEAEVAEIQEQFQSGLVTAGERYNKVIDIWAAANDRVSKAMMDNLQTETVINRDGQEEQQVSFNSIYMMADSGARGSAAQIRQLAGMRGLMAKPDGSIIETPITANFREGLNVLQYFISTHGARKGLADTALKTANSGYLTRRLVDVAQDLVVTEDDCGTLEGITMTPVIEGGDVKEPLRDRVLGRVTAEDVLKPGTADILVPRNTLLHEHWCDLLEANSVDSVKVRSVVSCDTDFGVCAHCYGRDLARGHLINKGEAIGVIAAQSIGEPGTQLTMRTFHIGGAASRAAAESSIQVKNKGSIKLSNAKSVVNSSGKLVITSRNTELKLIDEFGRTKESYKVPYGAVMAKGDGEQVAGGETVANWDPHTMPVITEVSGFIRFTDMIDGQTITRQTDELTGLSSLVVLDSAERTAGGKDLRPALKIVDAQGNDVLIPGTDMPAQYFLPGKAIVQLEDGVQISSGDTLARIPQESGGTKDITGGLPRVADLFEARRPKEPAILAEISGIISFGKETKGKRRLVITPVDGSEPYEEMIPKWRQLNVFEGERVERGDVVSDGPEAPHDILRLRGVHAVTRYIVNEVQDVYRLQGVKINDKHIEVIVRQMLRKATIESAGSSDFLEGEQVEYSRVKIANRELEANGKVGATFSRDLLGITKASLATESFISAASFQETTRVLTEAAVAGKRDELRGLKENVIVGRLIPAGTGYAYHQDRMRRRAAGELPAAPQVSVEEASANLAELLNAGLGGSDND
T1 sequence (A6TGP0 whole entry): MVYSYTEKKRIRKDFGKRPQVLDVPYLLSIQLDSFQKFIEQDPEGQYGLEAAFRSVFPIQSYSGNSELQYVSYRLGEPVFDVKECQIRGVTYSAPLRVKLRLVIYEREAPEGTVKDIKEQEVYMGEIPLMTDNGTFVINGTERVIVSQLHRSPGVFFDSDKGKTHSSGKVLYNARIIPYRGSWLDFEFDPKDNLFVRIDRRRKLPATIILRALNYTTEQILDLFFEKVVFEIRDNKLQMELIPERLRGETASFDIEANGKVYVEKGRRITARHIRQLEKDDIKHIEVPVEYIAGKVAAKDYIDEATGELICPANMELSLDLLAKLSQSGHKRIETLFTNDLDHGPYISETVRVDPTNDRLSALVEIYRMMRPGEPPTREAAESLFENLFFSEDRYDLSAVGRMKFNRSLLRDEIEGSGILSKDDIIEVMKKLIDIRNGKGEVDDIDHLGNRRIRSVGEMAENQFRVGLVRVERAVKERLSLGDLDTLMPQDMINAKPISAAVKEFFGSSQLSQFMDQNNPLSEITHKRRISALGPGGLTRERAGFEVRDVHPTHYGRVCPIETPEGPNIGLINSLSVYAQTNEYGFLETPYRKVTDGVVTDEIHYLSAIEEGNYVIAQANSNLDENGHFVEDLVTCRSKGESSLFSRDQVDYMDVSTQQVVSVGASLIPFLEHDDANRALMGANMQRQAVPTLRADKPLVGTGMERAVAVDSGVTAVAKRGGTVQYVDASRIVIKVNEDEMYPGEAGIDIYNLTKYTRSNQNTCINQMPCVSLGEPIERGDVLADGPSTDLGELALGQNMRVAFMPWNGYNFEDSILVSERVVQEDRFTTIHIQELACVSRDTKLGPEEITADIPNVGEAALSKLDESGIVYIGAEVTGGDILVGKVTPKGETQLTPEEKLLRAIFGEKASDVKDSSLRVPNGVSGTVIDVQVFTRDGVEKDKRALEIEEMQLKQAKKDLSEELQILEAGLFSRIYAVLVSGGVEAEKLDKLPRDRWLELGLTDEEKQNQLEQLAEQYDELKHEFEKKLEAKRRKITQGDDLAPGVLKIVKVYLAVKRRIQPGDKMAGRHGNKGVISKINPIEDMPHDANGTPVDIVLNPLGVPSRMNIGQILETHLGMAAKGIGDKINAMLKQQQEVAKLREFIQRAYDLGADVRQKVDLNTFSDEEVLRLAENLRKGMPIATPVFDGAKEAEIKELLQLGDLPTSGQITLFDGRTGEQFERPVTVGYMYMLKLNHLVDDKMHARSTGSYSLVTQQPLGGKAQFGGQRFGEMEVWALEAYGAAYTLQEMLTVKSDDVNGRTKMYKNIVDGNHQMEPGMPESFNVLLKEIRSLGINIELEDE
T1 sequence (A6TEU8 whole entry, further chain): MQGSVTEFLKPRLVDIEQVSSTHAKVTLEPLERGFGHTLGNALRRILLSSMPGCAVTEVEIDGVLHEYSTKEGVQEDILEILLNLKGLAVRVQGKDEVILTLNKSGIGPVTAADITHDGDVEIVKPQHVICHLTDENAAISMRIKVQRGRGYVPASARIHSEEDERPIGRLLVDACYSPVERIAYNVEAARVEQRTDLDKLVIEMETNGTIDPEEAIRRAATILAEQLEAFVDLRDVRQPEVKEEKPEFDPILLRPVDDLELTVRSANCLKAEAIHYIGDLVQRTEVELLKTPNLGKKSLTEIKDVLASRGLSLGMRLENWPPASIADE
Description: We successfully co-expressed the subunits of K. pneumoniae RNAp to prepare the required core enzyme by a dual plasmids expression system, pACYC-Duet and pET-Duet. The method is briefly described as follows:
Recombinant plasmids containing different subunits of RNAP (rpoA, rpoB, rpoC, rpoD, rpoZ) were constructed using the Gibson assembly method. First, all the required fragments were obtained by PCR amplification from the K. pneumoniae MGH78578 genome and two Duet plasmids, respectively. All fragments, Gibson Assembly Master Mix (NEB, #E2611S) and deionized water were then mixed and incubated at 50° C. for 60 minutes. The recombinant plasmids were transformed into E. coli DH5α by heat shock method. After verification via sequencing, the recombinant plasmids were then transformed into E. coli BL21(DE3). Plasmids pACYC Duet rpoA-rpoZ-Amp (encoding […]) and pET Duet rpoB-rpoC-Kana (encoding β and β′ subunits) were transformed together into E. coli BL21 to prepare RNA core polymerase by in vivo assembly. The σ factor σ subunit was obtained by overexpression of E. coli BL21 containing the plasmid pET-Duet-rpoD-Kana alone. The recombinant bacteria were first cultured in LB agar containing 50 μg/mL of kanamycin and 100 μg/mL of ampicillin and then inoculated into LB broth containing the same concentration of antibiotics at 37° C., 250 rpm. After the bacterial turbidity reached an OD600 of 0.6, 0.5 mM IPTG was added and cultured at 16° C., 200 rpm for 16 hours. Cells were harvested by centrifugation (5000 rpm, 20 minutes at 4° C.). The protein was then purified by affinity chromatography. To further obtain bacterial RNAp holoenzyme, RNAp core enzyme was incubated with sigma subunits at a molar ratio of 1:1 at 37° C. for 15 minutes and then used for subsequent ITC assays.
The test was performed at 25° C. using a Malvern MicroCal PEAQ-ITC automatic ultrasensitive isothermal titration calorimeter (MicroCal (Malvern Instruments), Malvern, UK). […] The solution was stirred at 750 rpm. MicroCal PEAQ-ITC analysis software was used to fit the data to a one site binding model.

CR-HvKP 1 [5] = experiment: String test on sheep blood agar; format: cell-based, K. pneumoniae; details: drug alone
Experimental: 1. A series of tests were performed according to the following process. CR-HvKP 1 was inoculated onto the agar plate containing 5% sheep blood and different drugs and cultured overnight at 37° C. The series test refers to a test in which viscous strings greater than 5 mm in length are formed when a single colony is stretched with a standard bacteriological inoculating loop, which can be considered a virulent strain of a high-viscosity phenotype.

CR-HvKP 1 [6] = experiment: Mucoviscosity assay; format: cell-based, K. pneumoniae; details: drug alone, OD600 of supernatant
Experimental: 2. Mucoviscosity assay: The overnight culture of CR-HvKP 1 was re-inoculated into fresh LB broth to produce a bacterial broth with an OD600 of 0.3. Different drugs were then added and cultured with shaking at 37° C. for 6 hours. The culture was then diluted to an OD600 of 1.0 and centrifuged at 1,000×g for 2 minutes before the supernatant was obtained for OD600 measurement.

rmpA2 = experiment: Virulence gene expression by qRT-PCR; format: cell-based, K. pneumoniae; details: drug alone
CR-HvKP 1 [7] = details: 20 μg/mL zidovudine

Experimental for red blood cells (RBCs): In-vitro method: Hemolysis experiment: The blood from fresh ICR mice was collected by cardiac blood withdrawal, preserved in K2-EDTA tubes (BD Vacultainer® K2 EDTA, Becton-Dickinson) and temporarily stored at 4° C. The whole blood sample was centrifuged (500 g, 10 minutes) to remove plasma, and then washed three times with PBS buffer. After the last washing, 100 μL of the remaining red blood cells (RBCs) were carefully aspirated from the bottom and diluted with 4.9 mL PBS buffer to prepare a 2% blood solution. […] 50 μL of diluted RBCs were mixed with 100 μL of milli-Q H20 (100% hemolysis) or 100 μL of drug-free PBS as positive and negative controls, respectively. It should be noted that rifampicin itself was red, so the absorbance of PBS with different concentrations of the drug was used as background correction in the calculation. The mixture was mixed gently and incubated at 37° C. for 30 minutes. 80 μL of supernatant was obtained by centrifugation at 2000×g for 6 minutes, and the optical density of the supernatant at 541 nm was measured with a microplate reader (SpectraMax 190, Moleclar Devices).

Structure (SMILES) | MIC (14WZ-43) | MIC (14WZ-44) | MIC (14WZ-45) | MIC (14WZ-51) | MIC (14WZ-52) | MIC (15WZ-68) | MIC (15WZ-88) | MIC (16WZ-134) | MIC (16ZR-10) | MIC (16ZR-33) | MIC (16ZR-58) | MIC (16ZR-93) | MIC (17ZR-31) | MIC (17ZR-61) | MIC (17ZR-63) | MIC (17ZR-75) | MIC (CR-HvKP 1 [1]) | MIC (CR-HvKP 2) | MIC (CR-HvKP 3) | MIC (CR-HvKP 5) | further results
CO[C@H]1/C=C/O[C@@]2(C)Oc3c(C)c(O)c4c(O)c(c(/C=N/N5CCN(C)CC5)c(O)c4c3C2=O)NC(=O)/C(C)=C\C=C\[C@H](C)[C@H](O)[C@@H](C)[C@@H](O)[C@@H](C)[C@H](OC(C)=O)[C@@H]1C [rifampicin] | 32 µg/mL (≈ 38.9 µM) | 32 µg/mL (≈ 38.9 µM) | 16 µg/mL (≈ 19.4 µM) | 32 µg/mL (≈ 38.9 µM) | 32 µg/mL (≈ 38.9 µM) | 32 µg/mL (≈ 38.9 µM) | 16 µg/mL (≈ 19.4 µM) | 32 µg/mL (≈ 38.9 µM) | 32 µg/mL (≈ 38.9 µM) | 16 µg/mL (≈ 19.4 µM) | 32 µg/mL (≈ 38.9 µM) | > 64 µg/mL | 32 µg/mL (≈ 38.9 µM) | 32 µg/mL (≈ 38.9 µM) | 32 µg/mL (≈ 38.9 µM) | 64 µg/mL (≈ 77.8 µM) | 32 µg/mL (≈ 38.9 µM) | 32 µg/mL (≈ 38.9 µM) | 32 µg/mL (≈ 38.9 µM) | 32 µg/mL (≈ 38.9 µM) | MIC (E. coli ATCC25922): 8 µg/mL (≈ 9.72 µM); MIC (K. pneumoniae MGH78578): 32 µg/mL (≈ 38.9 µM); Viability (%) (CR-HvKP 1 [2]; ZDV 0 mg/kg + RIF 8 mg/kg): 30%; mortality rate of mice (CR-HvKP 1 [2]; rifampicin 8 mg/kg only, in 72 hours): 66%; MIC (CR-HvKP 1 [3]): 4100 µg/mL (≈ 4980 µM); hemolysis (red blood cells (RBCs)): low level; HepG2 cell lysis (HepG2 cells): low level
Cc1cn([C@H]2C[C@H](N=[N+]=[N-])[C@@H](CO)O2)c(=O)[nH]c1=O [zidovudine] | 2.5 µg/mL (≈ 9.35 µM) | 2.5 µg/mL (≈ 9.35 µM) | 2.5 µg/mL (≈ 9.35 µM) | 2.5 µg/mL (≈ 9.35 µM) | 1.25 µg/mL (≈ 4.68 µM) | 2.5 µg/mL (≈ 9.35 µM) | 2.5 µg/mL (≈ 9.35 µM) | > 20 µg/mL | 0.625 µg/mL (≈ 2.34 µM) | 5 µg/mL (≈ 18.7 µM) | 2.5 µg/mL (≈ 9.35 µM) | > 20 µg/mL | 2.5 µg/mL (≈ 9.35 µM) | 1.25 µg/mL (≈ 4.68 µM) | 1.25 µg/mL (≈ 4.68 µM) | 5 µg/mL (≈ 18.7 µM) | 2.5 µg/mL (≈ 9.35 µM) | 2.5 µg/mL (≈ 9.35 µM) | 2.5 µg/mL (≈ 9.35 µM) | 5 µg/mL (≈ 18.7 µM) | MIC (E. coli ATCC25922): 0.625 µg/mL (≈ 2.34 µM); MIC (K. pneumoniae MGH78578): 5 µg/mL (≈ 18.7 µM); antibacterial effect (E. coli): exhibited antibacterial effect; antibacterial effect (P. aeruginosa): exhibited antibacterial effect; antibacterial effect (K. pneumoniae): exhibited antibacterial effect; Viability (%) (CR-HvKP 1 [2]; ZDV 10 mg/kg + RIF 0 mg/kg): 0%; mortality rate of mice (CR-HvKP 1 [2]; zidovudine 10 mg/kg only, in 36 hours): 100%; MIC (CR-HvKP 1 [3]): 1280 µg/mL (≈ 4790 µM); enthalpy (ΔH) [4]: -80.1 ± 124 kcal/mol; reaction stoichiometry (N sites) [4]: 0.239±0.273; Kd ([4]; one site binding model): 7.8 µM; string length (CR-HvKP 1 [5]): reduce; hypermucoviscosity (CR-HvKP 1 [6]): reduce; expression of bacterial virulence factor rmpA2 (rmpA2): inhibition; population size of CR-HvKP 1 in time-kill curve (CR-HvKP 1 [7]): reduced in the first 4 hours and then re-grew to reach the same size as no treatment control at 24 hours; HepG2 cell lysis (HepG2 cells): low level
